“Also recorded” adds a separate entry of the source. Bridges are numbered along the chain shown (N, C = ends). Where no end group is shown, it is not given here. [ ]: non-standard residue; d: D form. pGlu = O=C1CC[C@@H](C(=O)O)N1
Experiments:
Escherichia coli ML35 = assay: Radial diffusion antibacterial assay, E. coli ML35; format: cell-based; settings: 5 μl of peptide, 10 to 300 μg/ml, FIG. 7
Description: (§1) FIG. 7. Antibacterial activities of purified beta defensins. Nutrient agar plates seeded with E. coli ML35 (.oval-solid.) or S. aureus 502A (.smallcircle.) were used to assess antibacterial activity of 13 neutrophil beta-defensins in addition to rabbit defensin NP-1, bactenecin dodecapeptide, and indolicidin. Activity is expressed as the diameter of clearing (mm) resulting from the application of 5 μl of peptide at the concentrations shown.
(§2) Antimicrobial assay. Escherichia coli ML35 and Staphylococcus aureus 502A were utilized in a radial diffusion assay recently described by Lehrer et al. (J. Immunol. Meth. 167-173 (1991)). Bacteria were grown to mid-log phase in trypticase soy broth (TSB), diluted into 10 ml of warm (43° C.) 1% agarose containing 3 mg of TSB, buffered with 10 mM sodium phosphate, pH 7.4. Five μl of each peptide solution was pipetted into wells formed with a 4 mm cork bored and allowed to incubate at 37° C. for 3-4 hours. Plates were then overlaid with 10 ml of sterile 1% agar containing 2×TSB. Following incubation for 18 to 24 hours, the diameter of the clear zone surrounding each well was measured using a magnified transilluminator.
(§3) Antimicrobial activity of beta-defensins. The antibacterial activity of each beta-defensin was evaluated using Staphylococcus aureus 502A and Escherichia coil ML35 as test organisms. Using a sensitive radial diffusion assay, each peptide was tested against the two bacterial organisms with beta-defensin concentrations ranging from 10 to 300 μg/ml. The data presented in FIG. 7 reveal the dose-dependent activity of each peptide as measured by the size of the clear zone surrounding the sample well. In most cases, the log of the peptide concentration was linearly related to the diameter of the growth-free zone. […] In most cases, the zone of clearing was greater against E. coli than S. aureus.

[1] = tested on: Staphylococcus aureus 502A; assay: Radial diffusion antibacterial assay, S. aureus 502A; format: cell-based; settings: 5 μl of peptide, 10 to 300 μg/ml, FIG. 7
Description: as §1, §2, §3

E. coli = settings: background, earlier report; cited from earlier work
S. aureus = settings: background, earlier report; cited from earlier work
Candida albicans 16820 = format: cell-based; settings: 0 to 50 μg/ml, 60 minutes, FIG. 15
Description: (§4) Candida albicans 16820 and Cryptococcus neoformans 271A were grown with shaking for 24 hours or days, respectively, at 37° C. in Sabouraud Dextrose Broth (SDB, DIFCO). To obtain midlogarithmic phase organisms, 1.0 ml of overnight culture was inoculated into 50 ml of SDB and incubated for 3 hours (C. albicans) or overnight (C. neoformans) with shaking. The cultures were centrifuged at 10,000 rpm for 10 minutes at 4° C., washed with cold 10 mM phosphate buffer, pH 7.4, and resuspended in cold buffer to a concentration of 1×10^7 cells/ml. The fungicidal assay mixture contained 30 1 of the phosphate buffer, 10 μl (1×10^5 cells) of the fungal stock suspension, and 10 μl of peptide giving final peptide concentrations of 0 to 50 μg/ml. Incubations were carried out at 37° C. for 60 minutes, after which a 30 μl aliquot was removed and diluted 10, 100, and 1000-fold. Duplicate 100 μl samples of each dilution were spread onto SDB plates and incubated for 18 hours at 37° C. Plates were incubated for 1 or 2 days at 37° C. Surviving organisms were quantitated by colony counting using a Darkfield Colony Counter (Quebec).

[2] = tested on: Cryptococcus neoformans 271A; assay: Fungicidal assay (colony counting), Cryptococcus neoformans 271A; format: cell-based; settings: 60 minutes, FIG. 16; for fungicidal potency against C. neoformans: 0 to 50 μg/ml; for fungicidal effectiveness against C. neoformans at highest concentration: 50 μg/ml
Description: as §4

E. coli ML35 = assay: Bactericidal assay (colony counting), E. coli ML35; format: cell-based, Escherichia coli; settings: below 50 μg/ml, 30 minutes, FIG. 14
Description: A 1:500 dilution of overnight cultures of E. coli ML35 and S. aureus 502A was incubated with shaking for 2.5 to 3 hours at 37° C. in trypticase soy broth (TSB). The bacteria were centrifuged at 10,000 rpm for 10 minutes at 4 c, washed with cold 10 mM sodium phosphate buffer, pH 7.4 and resuspended in cold phosphate buffer to a concentration of 1×10^7 cells/ml. Solutions of various concentrations of BNBDs were made up in 10 mM sodium phosphate buffer, pH 7.4. The bactericidal assay mixture contained 30 μl of the phosphate buffer, 10 μl (1×10^5 cells) of the bacterial stock solution, and 10 μl of peptide giving final peptide concentrations of 0 to 50 μg/ml. Incubations were carried out at 37° C. for 30 minutes, after which a 30 μl aliquot was removed and diluted 10, 100, and 1000-fold. Duplicate 100 μl samples of each dilution were spread into TSB plates and incubated for 18 hours at 37° C. Colonies were counted with the Darkfield Colony Counter (Quebec).

| Compound | antibacterial activity (diameter of clearing) against E. coli (Escherichia coli ML35) | antibacterial activity (diameter of clearing) against S. aureus [1] | also measured |
| --- | --- | --- | --- |
| CC[C@H](C)[C@H](N)C(=O)N[C@@H](CC(C)C)C(=O)N1CCC[C@H]1C(=O)N[C@@H](Cc1c[nH]c2ccccc12)C(=O)N[C@@H](CCCCN)C(=O)N[C@@H](Cc1c[nH]c2ccccc12)C(=O)N1CCC[C@H]1C(=O)N[C@@H](Cc1c[nH]c2ccccc12)C(=O)N[C@@H](Cc1c[nH]c2ccccc12)C(=O)N1CCC[C@H]1C(=O)N[C@@H](Cc1c[nH]c2ccccc12)C(=O)N[C@@H](CCCNC(=N)N)C(=O)N[C@@H](CCCNC(=N)N)C(N)=O [indolicidin, reference compound] | the most active peptide against E. coli | nearly as active as rabbit NP-1 | bactericidal activity against E. coli (E. coli): potent bactericidal activity; bactericidal activity against S. aureus (S. aureus): potent bactericidal activity |
| BNBD-11: bovine neutrophil beta-defensin 11, 38 residues (SEQ ID NO: 11) (GPLSCRRNGGVCIPIRCPGPMRQIGTCFGRPVKCCRSW; disulfide 12-27, 17-35, 5-34; ends not checked) | – | – | fungicidal activity against C. albicans (Candida albicans 16820): completely inactive; fungicidal potency against C. neoformans [2]: substantially less active |
| [pGlu]GVRNHVTCRINRGFCVPIRCPGRTRQIGTCFGPRIKCCRSW (disulfide 9-38, 16-31, 21-39) [BNBD-3] | equivalent antibacterial activity | equivalent antibacterial activity | bactericidal potency against E. coli at lower concentrations (E. coli ML35): the greatest; fungicidal potency against C. neoformans [2]: the most potent |
| BNBD-8: bovine neutrophil beta-defensin 8, 38 residues; identical to BNBD-9 without the pyroglutamyl-glycine extension (SEQ ID NO: 8) | differ in antibacterial potency | differ in antibacterial potency | – |
| BNBD-5: bovine neutrophil beta-defensin 5, 40 residues (SEQ ID NO: 5) | – | all but BNBD-1 and BNBD-5 were active | – |
| [pGlu]RVRNPQSCRWNMGVCIPFLCRVGMRQIGTCFGPRVPCCRR (disulfide 9-38, 16-31, 21-39) [BNBD-4] | – | – | fungicidal effectiveness against C. neoformans at highest concentration [2]: equally effective |
| BNBD-2: bovine neutrophil beta-defensin 2, 40 residues; identical to BNBD-3 without the pyroglutamyl-glycine extension (SEQ ID NO: 2) (VRNHVTCRINRGFCVPIRCPGRTRQIGTCFGPRIKCCRSW; disulfide 14-29, 19-37, 7-36) | equivalent antibacterial activity | equivalent antibacterial activity | – |
| H-SGISGPLSCGRNGGVCIPIRCPVPMRQIGTCFGRPVKCCRSW (disulfide 9-38, 16-31, 21-39) [BNBD-13] | most active beta-defensins; also recorded: approximately equal | most active beta-defensins; also recorded: approximately equal | fungicidal effectiveness against C. neoformans at highest concentration [2]: equally effective |
| BNBD-1: bovine neutrophil beta-defensin 1, 38 residues, purified from neutrophil granules; sequence in FIG. 5 (SEQ ID NO: 1) (DFASCHTNGGICLPNRCPGHMIQIGICFRPRVKCCRSW; not fully specified (bridges); ends and bridges not checked) | – | all but BNBD-1 and BNBD-5 were active | – |
| BNBD-12: bovine neutrophil beta-defensin 12, 38 residues; disulfide connectivities determined (SEQ ID NO: 12) (GPLSCGRNGGVCIPIRCPVPMRQIGTCFGRPVKCCRSW; disulfide 12-27, 17-35, 5-34) | most active beta-defensins; also recorded: approximately equal | most active beta-defensins; also recorded: approximately equal | – |
| BNBD-9: bovine neutrophil beta-defensin 9, 40 residues, N-terminal pyroglutamyl (SEQ ID NO: 9) ([pGlu]GVRNFVTCRINRGFCVPIRCPGHRRQIGTCLGPQIKCCR; also: cyclic, type of ring not given here) | most active beta-defensins; also recorded: the greater in vitro activity | most active beta-defensins; also recorded: the greater in vitro activity | – |
| BNBD-7: bovine neutrophil beta-defensin 7, 40 residues (SEQ ID NO: 7) | most active beta-defensins | most active beta-defensins | – |

Source: patent publication US5821224A, “Antimicrobial peptides from bovine neutrophils” (Regents of the University of California, priority 1994, dated 1998)
